Assay results reported in ChEMBL document CHEMBL1129617, “Synthesis and antiretroviral evaluation of new alkoxy and aryloxy phosphate derivatives of 3'-azido-3'-deoxythymidine” (J Med Chem, 1996).

How the values were obtained:
CCRF-CEM [1] = assay: Concentration required to reduce 50% of the number of CEM/O cells in the HIV-1 infected cell cultures.; assay type: functional, cell-based; settings: Homo sapiens
CEM-TK(+) = assay: Concentration required to reduce 50% of the number of CEM/TK cells in the HIV-2 infected cell cultures.; assay type: functional, cell-based; settings: Homo sapiens
CCRF-CEM [2] = assay: Concentration required to reduce 50% of the number of CEM/O cells in the HIV-2 infected cell cultures.; assay type: functional, cell-based; settings: Homo sapiens
CCRF-CEM [3] = assay: Concentration required to reduce 50% of the number of CEM/O cells in the mock infected cell cultures.; assay type: functional; settings: Homo sapiens
[4] = Selectivity index in the HIV-1 infected cell cultures.; assay type: functional

| Structure (SMILES) | EC50 (CCRF-CEM [1]) [nM] | EC50 (CEM-TK(+)) [nM] | EC50 (CCRF-CEM [2]) [nM] | CC50 (CCRF-CEM [3]) [nM] | SI [4] |
| --- | --- | --- | --- | --- | --- |
| CCCCCCCCCCCCOCCOP(=O)(O)OCC1OC(n2cc(C)c(=O)[nH]c2=O)CC1N=[N+]=[N-] (stereo not drawn) | 115 | > 50000 | 133 | 76900 | 669 |
| CCCCCCCCCCCCOC[C@H](C)OP(=O)(O)OCC1OC(n2cc(C)c(=O)[nH]c2=O)CC1N=[N+]=[N-] (stereo partly drawn) | 200 | > 50000 | 260 | 88000 | 440 |
| Cc1cn(C2CC(N=[N+]=[N-])C(COP(=O)(O)OCCOc3cccc4ccccc34)O2)c(=O)[nH]c1=O (stereo not drawn) | 13 | > 125000 | 28 | > 125000 | >9615 |
| CCCCCCCCCCCCO[C@@H](C)COP(=O)(O)OC[C@H]1O[C@@H](n2cc(C)c(=O)[nH]c2=O)C[C@@H]1N=[N+]=[N-] | 320 | > 50000 | 350 | 94500 | 295 |
| CCCCCCCCCCCCOC[C@@H](C)OP(=O)(O)OCC1OC(n2cc(C)c(=O)[nH]c2=O)CC1N=[N+]=[N-] (stereo partly drawn) | 2170 | > 50000 | 2670 | 95900 | 44 |
| Cc1cn(C2CC(N=[N+]=[N-])C(COP(=O)(O)OCCOc3ccc4ccccc4c3)O2)c(=O)[nH]c1=O (stereo not drawn) | 15 | > 125000 | 20 | > 125000 | >8333 |
| Cc1cn(C2CC(N=[N+]=[N-])C(COP(=O)(O)OCCOc3ccccc3)O2)c(=O)[nH]c1=O (stereo not drawn) | 20 | > 125000 | 18 | > 125000 | >6250 |
| CCCCCCCCCCCCO[C@H](C)COP(=O)(O)OCC1O[C@@H](n2cc(C)c(=O)[nH]c2=O)C[C@@H]1N=[N+]=[N-] (single isomer, unassigned) | 500 | > 50000 | 500 | 93000 | 186 |
| Cc1cn([C@H]2C[C@H](N=[N+]=[N-])[C@@H](CO)O2)c(=O)[nH]c1=O [ZIDOVUDINE] | – | > 100000 | – | > 100000 | >16666 |
